US10626349B2, “Cleavable surfactants” (PROMEGA CORPORATION, priority 2007, dated 2020)

Legend:
[1] = molecular target: T1, Myoglobin from horse heart digested with trypsin (Equus caballus, UniProt P68082); assay: Myoglobin/Trypsin digest, HPLC peak area versus RapiGest control; assay type: biochemical; details: 0.01% surfactant, trypsin 50:1, 20 minutes at 37° C.; ratio to RapiGest control, >1 = more digestion
T1 construct: Myoglobin from horse heart; from tissue; host or cells: horse heart
Method: Myoglobin from horse heart (typically 25 μs) was digested with trypsin (Promega) at a 50:1 ratio in a volume of 125 μL (typical) of 50 mM Ammonium bicarbonate for 20 minutes at 37° C. with 0.01% RapiGest™ surfactant or 0.01% of the indicated compound of the invention (upper and lower chromatograms, respectively). TFA was added to 0.5-2% and the mixtures were incubated at 37° C. or 65° C. for 20 or 30 minutes. Degraded surfactant was removed by centrifugation at 14,000×g for 5 minutes. HPLC analysis was performed on a 25-50 μL reaction sample using an HP1050 LC system with an Agilent Sorbax SB-C18 column (3.0×100 mm, 3.5 micron) and a gradient of 0.1% TFA (97.5% initial) and Acetonitrile, 0.01% TFA (55% final condition followed by a 100% wash step) and a flow rate of 0.75 mL/min. Peptides were detected at 214 and 280 nm.
(§1) For each compound numbered below in Example 12, the rate of enhanced digestion was determined from the ratio of the surfactant peak area (surfactant # Pk. Area) to the Rapigest™ surfactant peak area (RG Pk area). Peak area was determined as the sum of all peaks integrated from 8-22 minutes.

[2] = molecular target: T2, Bacteriorhodopsin digested with chymotrypsin (Halobacterium salinarum, UniProt P02945); assay: Bacteriorhodopsin/Chymotrypsin digest, HPLC peak area versus RapiGest control; assay type: biochemical; details: 0.025% surfactant, BR heated (boiled) with surfactant 5 minutes at 95° C., chymotrypsin 10:1, 1 hour at 37° C.; ratio to RapiGest control
T2 sequence (P02945 14-261 limits assumed): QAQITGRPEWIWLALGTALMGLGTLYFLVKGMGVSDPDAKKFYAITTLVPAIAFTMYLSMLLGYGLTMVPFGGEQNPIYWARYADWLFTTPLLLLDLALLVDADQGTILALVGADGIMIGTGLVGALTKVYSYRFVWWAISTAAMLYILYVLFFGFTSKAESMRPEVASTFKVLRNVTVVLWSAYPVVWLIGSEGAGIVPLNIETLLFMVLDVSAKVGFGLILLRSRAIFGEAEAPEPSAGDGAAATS
Method: Bacteriorhodopsin (25 μs) was heated with 0.025% Rapigest™ surfactant or the indicated compound of the invention for 5 minutes at 95° C., then digested with chymotrypsin (Sigma) at a 10:1 ratio in 125 μL 50 mM Ammonium bicarbonate for 1 hour at 37° C. After one hour TFA was added to 0.5-2% and the mixtures were incubated at 37° C. or 65° C. for 20 or 30 minutes. Degraded surfactant was removed by centrifugation at 14,000×g for 5 minutes. An aliquot of 50-100 μL of digested protein was analyzed by HPLC as described above.
Compound 3211, 3212, 3224 and Rapigest™ surfactant control for FIG. 13C reactions: Bacteriorhodopsin (25 μs) was solubilized with 0.025% compound of interest for 1-2 minutes at room temperature, then digested with chymotrypsin (Sigma) at a 10:1 ratio in 125 μL 50 mM Ammonium bicarbonate for 1 hour at 37° C. After one hour TFA was added to 0.5-2% and the mixtures were incubated at 37° C. or 65° C. for 20 or 30 minutes. Degraded surfactant was removed by centrifugation at 14,000×g for 5 minutes. An aliquot of 50-100 μL of digested protein was analyzed by HPLC as described above.
as §1

[3] = Solubility of the surfactant; details: for solubility in aqueous solutions (concentration dissolved to) / solubility in aqueous solutions (in words): aqueous solution; for solubility (concentration dissolved to): in 50 mM ammonium bicarbonate; for solubilized in DMSO to: 100% DMSO
[4] = Acid and thermal degradation of the surfactant; details: for degradation after overnight incubation (in words): concentration not given; for degradation by acid (0.5% TFA) or by heat (boiling), in words: 3236: 0.1% solution in 0.5% TFA 30 minutes at 37° C. or 5 minutes of boiling without TFA; for acid-lability (in words): 0.5% TFA at 37° C. where stated (3237: 30 minutes), 3271 by TLC analysis; for thermolability (in words): 3266: 5 minutes at 95° C.
[5] = Hydrolytic stability in 50 mM ammonium bicarbonate (reverse-phase HPLC); assay type: physicochemical; parameters: key: >>: compound 100% stable over course of experiment
Method: Hydrolytic stability was measured by monitoring the change in retention time of the intact surfactant by reverse-phase HPLC. The ½-life is defined as the time required to reach 50% degradation.

[6] = surfactant conc. 0.025% in 50 mM ammonium bicarbonate
[7] = surfactant conc. 1% in 50 mM ammonium bicarbonate

T1 sequence (P68082 2-154 limits assumed): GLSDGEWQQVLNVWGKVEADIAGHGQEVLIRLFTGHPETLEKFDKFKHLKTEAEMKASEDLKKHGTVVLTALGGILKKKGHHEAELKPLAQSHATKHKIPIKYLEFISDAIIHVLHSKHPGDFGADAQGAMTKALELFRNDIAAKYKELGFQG

Structure (SMILES) | surfactant Pk area/RG Pk area, Myoglobin/Trypsin digest [1] | surfactant Pk area/RG Pk area, Bacteriorhodopsin/Chymotrypsin digest [2] | solubility in aqueous solutions (concentration dissolved to) [3] | also measured
CCCCCCCCCCC(OC(=O)NCCCS(=O)(=O)O)c1ccc(C(F)(F)F)cc1 (stereo not shown) [Compound 3200] | 0.7 | 0.8 | ~0.01% | degradation after overnight incubation (in words) [4]: No degradation was observed even after overnight incubation
CCCCCCCCCCCC(C)(C)OC(=O)Nc1ccc(N(CCCCS(=O)(=O)[O-])CCCCS(=O)(=O)O)cc1.[Na+] [Compound 3194] | 0.72 | 1.1 | 0.5% | degradation after overnight incubation (in words) [4]: No degradation was observed even after overnight incubation
CCCCCC/C=C/C(C)OC(=O)NCCCS(=O)(=O)O (stereo not shown) [Compound 3201] | 0.3 | 0.4 | 0.5% | –
CCCCCCCCCCCCC(OC(=O)NCCCS(=O)(=O)O)c1cc(OC)c(OC)c(OC)c1 (stereo not shown) [Compound 3267] | 0.9 | – | – | solubility (concentration dissolved to) [3]: 2%; degradation by acid (0.5% TFA) or by heat (boiling), in words [4]: Did not degrade in 0.5% TFA or by boiling
CCCCCCOc1ccc(COC(=O)NCCCS(=O)(=O)O)cc1 [Compound 3186] | – | 0.45 | – | solubility in aqueous solutions (in words) [3]: some solubility in aqueous solution; time to degradation of 0.01% solution ([4]; 37° C. where stated): ≤ 30 min
CCCCCCCCCCC(OC(=O)NCCCS(=O)(=O)O)c1ccsc1 (stereo not shown) [Compound 3273] | 0.75 | – | 1% | acid-lability (in words) [4]: Just partially acid-labile; thermolability (in words) [4]: thermostable
CCCCCCCCCCC(OC(=O)NCCCS(=O)(=O)O)c1ccc(Br)o1 (stereo not shown) [Compound 3270] | 0.8 | – | 0.5% | ½-life [5, 6]: 6.5 h; ½-life [5, 7]: 40 h
CCCCCCCCCCC(OC(=O)NCCCS(=O)(=O)[O-])c1ccc(OC)cc1.[Na+] (stereo not shown) [Compound 3212] | 1.4 | – | – | ½-life ([5]; surfactant conc. 0.0025% in 50 mM ammonium bicarbonate): 3.7 h; ½-life [5, 6]: 21 h; ½-life ([5]; surfactant conc. 0.10% in 50 mM ammonium bicarbonate): 38 h; ½-life [5, 7]: >>; solubility (concentration dissolved to) [3]: 1%; time to degradation in 0.5% TFA ([4]; 0.5% TFA, 37° C. where stated, 0.1% solution for 3220 and 3266): 15 min; time to degradation by boiling without TFA ([4]; boiling without TFA): 5 min
CCCCCC/C=C/C(C)OC(=O)Oc1ccc(NCCCS(=O)(=O)[O-])cc1.[Na+] (stereo not shown) [Compound 3209] | 2.1 | – | 0.5% | degradation after overnight incubation (in words) [4]: No degradation was observed even after overnight incubation
CCCCCCCCCCCC(C)(C)OC(=O)Oc1ccc(N(CCCCS(=O)(=O)[O-])CCCCS(=O)(=O)O)cc1.[Na+] [Compound 3196] | 0.65 | – | 0.5% | time to degradation of 0.01% solution ([4]; 37° C. where stated): 30 min; degradation of 0.1% solution (in words) [4]: overnight
CCCCCCCCCCC(OC(=O)NCCCS(=O)(=O)O)c1ccoc1 (stereo not shown) [Compound 3271] | 0.9 | – | 1% | ½-life [5, 6]: >350 h; ½-life [5, 7]: >>; acid-lability (in words) [4]: Just partially acid-labile; thermolability (in words) [4]: thermostable
CCCCCC(OC(=O)SCCS(=O)(=O)O)c1ccccc1 (stereo not shown) [Compound 3207] | – | – | 0.5% | time to degradation of 0.01% solution ([4]; 37° C. where stated): ≤ 60 min
CCCCCCCCCCCC(C)(C)OC(=O)Oc1ccc(NCCCCS(=O)(=O)O)cc1 [Compound 3195] | 0.5 | – | not more than 0.2% | degradation after overnight incubation (in words) [4]: No degradation was observed even after overnight incubation
CCCCCCCCCCCCOc1ccc(/C=N/CCCS(=O)(=O)O)cc1 [Compound 3221] | 0.13 | 0.5 | 0.5% | –
CCCCCCCCCCC(OC(=O)NCCCS(=O)(=O)O)c1cccs1 (stereo not shown) [Compound 3269] | 1 | – | 1% | ½-life ([5]; surfactant conc. 0.03% in 50 mM ammonium bicarbonate): 7 h; ½-life [5, 7]: 135 h
CCCCCCCCCCCc1ccc(C(OCCc2ccc(N(CCCCS(=O)(=O)[O-])CCCCS(=O)(=O)[O-])cc2)(c2ccccc2)c2ccc(OCCCCCCCCCC)cc2)cc1.[Na+].[Na+] (stereo not shown) [Compound 3216] | – | 0.7 | – | solubilized in DMSO to [3]: 10%; solubility in aqueous solutions (in words) [3]: Insoluble in aqueous solutions
CCCCCCCCCCC(OC(=O)NCCCS(=O)(=O)O)c1ccc(C(F)(F)F)o1 (stereo not shown) [Compound 3275] | 0.2 | – | 1% | ½-life [5, 6]: >300 h; ½-life [5, 7]: >>; degradation by acid (0.5% TFA) or by heat (boiling), in words [4]: Fully acid- and thermostable at the tested conditions
CCCCCCCCCCOc1ccc(C(OCCN(CCCCS(=O)(=O)[O-])CCCCS(=O)(=O)[O-])(c2ccccc2)c2ccc(OCCCCCCCCCC)cc2)cc1.[Na+].[Na+] [Compound 3218] | 0.3 | 0.65 | – | solubilized in DMSO to [3]: 10%; solubility in aqueous solutions (in words) [3]: Insoluble in aqueous solutions
CCCCCC(OC(=O)NCCCS(=O)(=O)O)c1ccccc1 (stereo not shown) [Compound 3190] | – | 0.34 | 0.5% | time to degradation of 0.01% solution ([4]; 37° C. where stated): 30 min; degradation of 0.1% solution (in words) [4]: overnight
CCCCCCC(OC(=O)NCCCS(=O)(=O)O)c1ccc(C(F)(F)F)cc1 (stereo not shown) [Compound 3199] | 0.37 | – | 0.5% | degradation after overnight incubation (in words) [4]: No degradation was observed even after overnight incubation
CCCCCC/C=C/C(C)OC(=O)NCC(O)CS(=O)(=O)[O-].[Na+] (stereo not shown) [Compound 3203] | – | 0.4 | 0.5% | degradation of 0.1% solution (in words) [4]: degraded after overnight incubation
CCCCCCCC(C)(C)OC(=O)Oc1ccc(NCCCS(=O)(=O)[O-])cc1.[Na+] [Compound 3210] | 0.3 | – | 0.5% | degradation rate (grade in words) [4]: moderate
CCCCCCCCCCC(OC(=O)NCCCS(=O)(=O)O)c1ccc(Cl)o1 (stereo not shown) [Compound 3274] | 1 | – | 1% | ½-life [5, 6]: ~6 h; degradation by acid (0.5% TFA) or by heat (boiling), in words [4]: Acid- and thermolabile
CCCCCCCCCCOc1ccc(C(OCCc2ccc(N(CCCCS(=O)(=O)[O-])CCCCS(=O)(=O)[O-])cc2)(c2ccccc2)c2ccc(OC)cc2)cc1.[Na+].[Na+] (stereo not shown) [Compound 3219] | – | – | 1% | –
